The values below are quoted from earlier work in US12465047B2, “Preparation method for L-glufosinate-ammonium powder” (ZHEJIANG UNIVERSITY OF TECHNOLOGY, priority 2020, dated 2025).

The conditions of the data set: stated as the reason for adjusting pH to 2-2.5 in step (4).

Turning to `CP(=O)(O)CC[C@H](N)C(=O)O.N` [L-glufosinate ammonium], the isoelectric point is on record as 2.66 pH.
